The nature of the test: real-time WGM (SRSN) resonator measurement of the streptavidin-biotin interaction, Langmuir model analysis. The class given is binding. To be noted: for association rate: fit of Equation 7. From the text:
An interaction between streptavidin and biotin may be measured. […] Prior to experiments, the SRSN resonator may be pre-processed using biotin. When streptavidin of a DPBS flows into a fluid channel, streptavidin starts to attach biotin on a surface of the optical active resonator. Streptavidin that has closely attached biotin on the surface of the resonator may increase the length of an optical path of a resonance mode. Accordingly, a resonance movement may occur because the resonance state of the optical active resonator is changed.
A beam of a 457.9 nm wavelength argon laser 730 may be concentrated on the top of an SRSN resonator 710 through the PDMS wall of a micro microfluidic channel 720. The laser intensity of a focal plane is 20 W/cm^2 and may obtain strong PL emission including a characteristic cavity mode profile by stimulating silicon nano-clusters. The PL emission is collected through the side wall of the microfluidic channel 720 by an objective lens 750 (numerical aperture: 0.15). In this case, a transverse magnetic (TM) polarization component may be selectively captured by a polarity bond. […] The TM mode may be selectively measured as a cavity TM mode because the TM mode has a slot structure and can be firmly fixed compared to a TE mode. In this case, a beam splitter 740 may be configured between the argon laser 730 and the objective lens 750 and between the objective lens 750 and a CCD camera 760. A separate objective lens, a polarizer 770 and the spectrometer 780 may be configured for measurement.
The PL spectrum is measured after the state of a frequency movement is a saturation state.
In order to additionally research the developed detection device and to analyze the influence of the nano-slot structure on molecule dynamics, a time-excessive operation of a frequency movement caused by an interaction was measured. […] Such a time shift of the frequency movement may be understood based on the Langmuir model. This is commonly used to analyze the kinetics of a surface bonding reaction in a system in which a ligand has been fixed to a firm surface. A fraction proportional to a bio sensor signal may be defined as the number of ligands and analysis complexes based on the Langmuir model, and may be divided by a total number of ligands represent in the following equation in a connection step.
[formula] in the saturation state. In FIG. 10A, a solid line indicates a suitable curve of Equation 7 for measured data points. In this curve, values of kon^obs and fbeq(c) can be obtained. Kd, kon and koff can be derived by substituting the two values with Equation 8 and Equation 9 and solving both the equations at the same time.

Read-outs that look alike come from different tables or passages of the source.

Consider 2 substances from US11733161B2, “Method of determining concentration of subject based on fraction bound measurement” (Korea Advanced Institute of Science and Technology, priority 2019, dated 2023).

Substance Bovine Serum Albumin [BSA] had a frequency movement (1 mg/mL, flowed 35 minutes over the biotin-processed resonator, control experiment) of 0.25 nm.
As a reminder, the koff is a measure of how fast the partners let go of each other. Lower therefore signals slow dissociation. In the case of streptavidin, the peak shift (streptavidin 144 nM, saturation state (FIG. 9B)) was 1.72 nm. The association rate turned out to be 12000 M⁻¹ s⁻¹ (streptavidin concentration 9 nM in DPBS), 4200 M⁻¹ s⁻¹ (streptavidin concentration 36 nM in DPBS), 3200 M⁻¹ s⁻¹ (streptavidin concentration 54 nM in DPBS) and 6400 M⁻¹ s⁻¹ (streptavidin concentration 90 nM in DPBS). Further, the “connection ratio / association rate” value (streptavidin-biotin complex, real-time bonding, Langmuir model) came to 0.0003 M⁻¹ s⁻¹. This substance also gave a koff (streptavidin-biotin complex, saturation state (FIG. 10B)) of 0.014 s⁻¹. Besides, the Kd runs as follows: (streptavidin-biotin complex, saturation state, Hill model fit (FIG. 10B), read-out: Kd) 380 nM; (streptavidin-biotin complex, read-out: separation constant) 380 nM.
